Where two headings read alike, the source gives them in different places.
What was measured:
[1] = test system: Serratia marcescens expressing IMP-1 (CL5741); test: Antibiotic potentiation activity: synergistic concentration (MITC95) with imipenem, OD600 growth; assay type: cell-based; conditions: for Serratia marcescens expressing IMP-1 (CL5741) MITC95: concentration giving 95% inhibition of bacterial growth
In short: (§1)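 In 1.1× CAMHB, clinical isolates from overnight plates were challenged with test compound alongside imipenem at an assay concentration of 4 μg/ml, sometimes 1 μg/ml. Plates sat covered at 35 °C for 22–24 h prior to spectrophotometric reading.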

[2] = test system: Klebsiella pneumoniae expressing VIM-1 (IHMA599644); test: as above; assay type: cell-based; conditions: for Klebsiella pneumoniae expressing VIM-1 (IHMA 599644) MITC95: concentration giving 95% inhibition of bacterial growth
In short: as §1

[3] = test system: Escherichia coli expressing NDM-1 (CLB30016); test: as above; assay type: cell-based; conditions: for Escherichia coli expressing NDM-1 (CLB 30016) MITC95: concentration giving 95% inhibition of bacterial growth
In short: as §1

NDM-1 = NDM-1 (Klebsiella pneumoniae, UniProt C7C422); test: biochemical; assay type: biochemical; conditions: read-out: NDM-1 IC50
NDM-1, sequence (C7C422 whole entry, looked up, species assumed): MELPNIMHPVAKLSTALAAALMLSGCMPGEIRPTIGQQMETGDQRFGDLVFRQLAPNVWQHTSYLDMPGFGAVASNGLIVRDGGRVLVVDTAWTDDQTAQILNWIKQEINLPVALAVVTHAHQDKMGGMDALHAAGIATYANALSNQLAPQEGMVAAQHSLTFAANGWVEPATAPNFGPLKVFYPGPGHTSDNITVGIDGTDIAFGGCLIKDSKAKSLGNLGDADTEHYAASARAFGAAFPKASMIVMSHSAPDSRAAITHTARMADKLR

VIM-1 = VIM-1 (Pseudomonas aeruginosa (strain ATCC 15692 / DSM 22644 / CIP 104116 / JCM 14847 / LMG 12228 / 1C / PRS 101 / PAO1), UniProt A0A0F7KYQ8); test: Enzyme activity: determination of IC50, fluorescence assay with CCF2-FA substrate (VIM-1); assay type: biochemical
IMP-1 = IMP-1 (Serratia marcescens, UniProt P52699); test: biochemical; assay type: biochemical; conditions: read-out: IMP-1 IC50
IMP-1, sequence (P52699 whole entry, looked up): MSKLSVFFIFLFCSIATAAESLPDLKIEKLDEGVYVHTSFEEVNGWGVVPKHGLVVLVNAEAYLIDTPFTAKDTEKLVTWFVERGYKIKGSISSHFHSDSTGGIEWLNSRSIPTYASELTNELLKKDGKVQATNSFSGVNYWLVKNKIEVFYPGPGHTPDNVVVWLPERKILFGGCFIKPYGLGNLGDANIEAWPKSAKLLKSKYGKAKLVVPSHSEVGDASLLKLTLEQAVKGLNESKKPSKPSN

[4] = CL5741 (IMP-1), 95% inhibition of bacterial growth
[5] = IHMA599644 (VIM-1), 95% inhibition of bacterial growth
[6] = CLB30016 (NDM-1), 95% inhibition of bacterial growth
[7] = fluorescence assay with CCF2-FA substrate
[8] = fluorescence assay with CCF2-FA substrate, read-out: VIM-1 IC50
[9] = Serratia marcescens CL5741 (IMP-1), 95% growth inhibition
[10] = Klebsiella pneumoniae IHMA599644 (VIM-1), 95% growth inhibition
[11] = (CLB30016, NDM-1), 95% growth inhibition
[12] = NDM-1 enzyme, CCF2-FA substrate
[13] = VIM-1 enzyme, CCF2-FA substrate, read-out: VIM-1 IC50
[14] = IMP-1 enzyme, CCF2-FA substrate
[15] = Serratia marcescens expressing IMP-1 (CL5741), 95% growth inhibition
[16] = Klebsiella pneumoniae expressing VIM-1 (IHMA599644), 95% growth inhibition
[17] = Escherichia coli expressing NDM-1 (CLB30016), 95% growth inhibition
[18] = NDM-1 enzyme, CCF2-FA fluorescence assay
[19] = VIM-1 enzyme, CCF2-FA fluorescence assay, read-out: VIM-1 IC50
[20] = IMP-1 enzyme, CCF2-FA fluorescence assay
[21] = VIM-1 IC50, VIM-1 enzyme, CCF2-FA substrate

NCCN1CC(c2ccc(-c3ccc(C(F)(F)F)c(S(N)(=O)=O)c3-c3nnn[nH]3)cc2)C1 [Example 812, 4′-[1-(2-aminoethyl)azetidin-3-yl]-2-(1H-tetrazol-5-yl)-4-(trifluoromethyl)biphenyl-3-sulfonamide]
Serratia marcescens MITC95 [1, 4]: 6.25 µM
Klebsiella pneumoniae MITC95 [2, 5]: 12.5 µM
Escherichia coli MITC95 [3, 6]: 1.563 µM
IC50 (NDM-1; [7]): 2.7 nM
IC50 (VIM-1; [8]): 3.88 nM
IC50 (IMP-1; [7]): 5.77 nM

Nc1ncc2cccc(-c3ccc(C(F)(F)F)c(S(N)(=O)=O)c3-c3nn[nH]n3)c2n1 [Example 558, 3-(2-aminoquinazolin-8-yl)-2-(2H-tetrazol-5-yl)-6-(trifluoromethyl)benzenesulfonamide]
Serratia marcescens MITC95 [1, 9]: 6.25 µM
Klebsiella pneumoniae MITC95 [2, 10]: 6.25 µM
Escherichia coli MITC95 [3, 11]: 6.25 µM
IC50 (NDM-1; [12]): 0.145 nM
IC50 (VIM-1; [13]): 0.178 nM
IC50 (IMP-1; [14]): 1.96 nM

NC1Cc2ccc(-c3ccc(C(F)(F)F)c(S(N)(=O)=O)c3-c3nn[nH]n3)cc2C1 (stereo not drawn) [Example 442, 3-(2-amino-2,3-dihydro-1H-inden-5-yl)-2-(2H-tetrazol-5-yl)-6-(trifluoromethyl)benzenesulfonamide]
Serratia marcescens MITC95 [1, 15]: 0.5859 µM
Klebsiella pneumoniae MITC95 [2, 16]: 0.7813 µM
Escherichia coli MITC95 [3, 17]: 1.172 µM
IC50 (NDM-1; [18]): 11.8 nM
IC50 (VIM-1; [19]): 0.268 nM
IC50 (IMP-1; [20]): 16.5 nM

NS(=O)(=O)c1c(CC2CCNCC2)ccc(-c2ccc(C3CCN(CC4CNC4)CC3)cc2)c1-c1nn[nH]n1 [Example 470, 4′-(1-(azetidin-3-ylmethyl)piperidin-4-yl)-4-(piperidin-4-ylmethyl)-2-(2H-tetrazol-5-yl)-[1,1′-biphenyl]-3-sulfonamide]
Serratia marcescens MITC95 [1, 15]: 1.563 µM
Klebsiella pneumoniae MITC95 [2, 16]: 12.5 µM
Escherichia coli MITC95 [3, 17]: 0.7813 µM
IC50 (NDM-1; [18]): 27 nM
IC50 (VIM-1; [19]): 101 nM
IC50 (IMP-1; [20]): 3.23 nM

NS(=O)(=O)c1cccc(-c2cccc3c2NCCC3)c1-c1nnn[nH]1 [Example 121, 3-(1,2,3,4-tetrahydroquinolin-8-yl)-2-(1H-tetrazol-5-yl)benzenesulfonamide]
Serratia marcescens expressing IMP-1 (CL5741) MITC95 [1]: 25 µM
Klebsiella pneumoniae expressing VIM-1 (IHMA 599644) MITC95 [2]: >200 µM
Escherichia coli expressing NDM-1 (CLB 30016) MITC95 [3]: 3.125 µM
IC50 (NDM-1; [7]): 7.37 nM
IC50 (VIM-1; [8]): 187 nM
IC50 (IMP-1; [7]): 373 nM

NS(=O)(=O)c1c(C(F)(F)F)ccc(C2CCC3(CCNCC3)CC2)c1-c1nnn[nH]1 [Example 833, 3-(3-azaspiro[5.5]undecan-9-yl)-2-(1H-tetrazol-5-yl)-6-(trifluoromethyl)benzenesulfonamide]
Serratia marcescens MITC95 [1, 4]: 3.125 µM
Klebsiella pneumoniae MITC95 [2, 5]: 12.5 µM
Escherichia coli MITC95 [3, 6]: 1.563 µM
IC50 (NDM-1; [7]): 0.74 nM
IC50 (VIM-1; [8]): 3.33 nM
IC50 (IMP-1; [7]): 4.31 nM

N=C(NC1CNC1)c1ccc(-c2ccc(C(F)(F)F)c(S(N)(=O)=O)c2-c2nn[nH]n2)cc1 [Example 563, N-(azetidin-3-yl)-3′-sulfamoyl-2′-(2H-tetrazol-5-yl)-4′-(trifluoromethyl)biphenyl-4-carboximidamide]
Serratia marcescens MITC95 [1, 9]: 6.25 µM
Klebsiella pneumoniae MITC95 [2, 10]: 3.125 µM
Escherichia coli MITC95 [3, 11]: 3.125 µM
IC50 (NDM-1; [12]): 53.8 nM
IC50 (VIM-1; [13]): 5.02 nM
IC50 (IMP-1; [14]): 45.9 nM

NS(=O)(=O)c1c(C(F)(F)F)ccc(-c2ccc(C(O)C3CCNCC3)cc2)c1-c1nnn[nH]1 (stereo not drawn) [Example 738, 4′-[hydroxy(piperidin-4-yl)methyl]-2-(1H-tetrazol-5-yl)-4-(trifluoromethyl)biphenyl-3-sulfonamide]
Serratia marcescens MITC95 [1, 9]: 6.25 µM
Klebsiella pneumoniae MITC95 [2, 10]: 50 µM
Escherichia coli MITC95 [3, 11]: 3.125 µM
IC50 (NDM-1; [12]): 1.28 nM
IC50 (VIM-1; [21]): 3.41 nM
IC50 (IMP-1; [14]): 2.28 nM

NC1=NCC(c2ccc(-c3cccc(S(N)(=O)=O)c3-c3nnn[nH]3)cc2)CN1 (stereo not drawn) [Example 511, 4′-(2-Amino-1,4,5,6-tetrahydropyrimidin-5-yl)-2-(1H-tetrazol-5-yl)-[1,1′-biphenyl]-3-sulfonamide]
Serratia marcescens MITC95 [1, 9]: 3.125 µM
Klebsiella pneumoniae MITC95 [2, 10]: 100 µM
Escherichia coli MITC95 [3, 11]: 3.125 µM
IC50 (NDM-1; [12]): 4.8 nM
IC50 (VIM-1; [21]): 41.6 nM
IC50 (IMP-1; [14]): 14.3 nM

NCC1CCC(N[C@H]2CC[C@H](c3ccc(C(F)(F)F)c(S(N)(=O)=O)c3-c3nnn[nH]3)CC2)CC1 (stereo partly drawn) [Example 704, 3-(4-{[4-(aminomethyl)cyclohexyl]amino}cyclohexyl)-2-(1H-tetrazol-5-yl)-6-(trifluoromethyl)benzene sulfonamide]
Serratia marcescens MITC95 [1, 9]: 6.25 µM
Klebsiella pneumoniae MITC95 [2, 10]: 6.25 µM
Escherichia coli MITC95 [3, 11]: 1.563 µM
IC50 (NDM-1; [12]): 14.8 nM
IC50 (VIM-1; [13]): 7.17 nM
IC50 (IMP-1; [14]): 51.6 nM

NS(=O)(=O)c1c(C(F)(F)F)ccc(-c2cnc3cc[nH]c3c2)c1-c1nnn[nH]1 [Example 474, 3-(1H-pyrrolo[3,2-b]pyridin-6-yl)-2-(1H-tetrazol-5-yl)-6-(trifluoromethyl)benzenesulfonamide]
Serratia marcescens MITC95 [1, 15]: 0.4453 µM
Klebsiella pneumoniae MITC95 [2, 16]: 1.531 µM
Escherichia coli MITC95 [3, 17]: 0.09375 µM
IC50 (NDM-1; [18]): 0.523 nM
IC50 (VIM-1; [19]): 0.549 nM
IC50 (IMP-1; [20]): 3.91 nM

NC1(CN2CCC3(CCC(c4ccc(C(F)(F)F)c(S(N)(=O)=O)c4-c4nnn[nH]4)CC3)CC2)CC1 [Example 834, 3-[3-[(1-aminocyclopropyl)methyl]-3-azaspiro[5.5]undecan-9-yl]-2-(1H-tetrazol-5-yl)-6-(trifluoromethyl)benzenesulfonamide]
Serratia marcescens MITC95 [1, 4]: 6.25 µM
Klebsiella pneumoniae MITC95 [2, 5]: 50 µM
Escherichia coli MITC95 [3, 6]: 6.25 µM
IC50 (NDM-1; [7]): 1.49 nM
IC50 (VIM-1; [8]): 13.3 nM
IC50 (IMP-1; [7]): 5.45 nM

Nc1cncc(-c2cccc(S(N)(=O)=O)c2-c2nnn[nH]2)n1 [Example 137, 3-(6-aminopyrazin-2-yl)-2-(1H-tetrazol-5-yl)benzenesulfonamide]
Serratia marcescens expressing IMP-1 (CL5741) MITC95 [1]: 25 µM
Klebsiella pneumoniae expressing VIM-1 (IHMA 599644) MITC95 [2]: 25 µM
Escherichia coli expressing NDM-1 (CLB 30016) MITC95 [3]: 1.172 µM
IC50 (NDM-1; [7]): 30.7 nM
IC50 (VIM-1; [8]): 561 nM
IC50 (IMP-1; [7]): 2530 nM

NC1CN(C2CCN(c3ccc(C(F)(F)F)c(S(N)(=O)=O)c3-c3nnn[nH]3)CC2)C1 [Example 758, 3-[4-(3-aminoazetidin-1-yl)piperidin-1-yl]-2-(1H-tetrazol-5-yl)-6-(trifluoromethyl) benzenesulfonamide]
Serratia marcescens MITC95 [1, 4]: 6.25 µM
Klebsiella pneumoniae MITC95 [2, 5]: 6.25 µM
Escherichia coli MITC95 [3, 6]: 6.25 µM
IC50 (NDM-1; [7]): 29.6 nM
IC50 (VIM-1; VIM-1 IC50, fluorescence assay with CCF2-FA substrate): 2.44 nM
IC50 (IMP-1; [7]): 45.8 nM

Nc1nc2nccc(-c3ccc(C(F)(F)F)c(S(N)(=O)=O)c3-c3nnn[nH]3)c2[nH]1 [Example 570, 3-(2-amino-1H-imidazo[4,5-b]pyridin-7-yl)-2-(1H-tetrazol-5-yl)-6-(trifluoromethyl)benzenesulfonamide]
Serratia marcescens MITC95 [1, 9]: 6.25 µM
Klebsiella pneumoniae MITC95 [2, 10]: 6.25 µM
Escherichia coli MITC95 [3, 11]: 3.125 µM
IC50 (NDM-1; [12]): 0.33 nM
IC50 (VIM-1; [13]): 0.49 nM
IC50 (IMP-1; [14]): 4.06 nM

Source: patent US9708336B2, “Metallo-beta-lactamase inhibitors” (priority 2014, dated 2017)
